Experimental data as given in patent publication US8063220B2, “Sulfonyl-quinoline derivatives” (Richter Gedeon Nyrt., priority 2007, dated 2011).

Legend:
rat mGluR5 = target: T1, rat mGluR5 (Rattus norvegicus, UniProt P31424); experiment: MGluR5 receptor binding test ([3H]-M-MPEP displacement, rat cerebro-cortical membrane preparation); conditions: rat mGluR5, [3H]-M-MPEP 2 nM; read-out: mGlu5 Ki
T1 construct: Rat cerebro-cortical membrane preparation was used; from tissue; host or cells: rat cerebral cortex (membrane preparation)
Protocol: Rat cerebro-cortical membrane preparation was used to determine the binding characteristics of reference compounds and novel compounds to the rat mGluR5. The A18 cell line expressing hmGluR5a (purchased from Euroscreen) was used to determine binding characteristics of the chemical compounds to the human mGluR5a receptor. [3H]-M-MPEP (2 nM) was used as radioligand. The nonspecific binding was determined in the presence of 10 μM M-MPEP.

rat mGluR1 = target: T2, rat mGluR1 (Rattus norvegicus, UniProt P23385); experiment: MGluR1 receptor binding test ([3H]R214127 displacement, rat cerebellar membrane preparation); conditions: rat mGluR1, [3H]R214127 3 nM; read-out: mGlu1 Ki
T2 construct: rat cerebellar membrane preparation was used; from tissue; host or cells: rat cerebellum (membrane preparation)
Protocol: MGluR1 receptor binding tests were performed according to modified method of Lavreysen et al. (Mol. Pharm., 2003, 63, 1082). Based on the high homology between the human and rat mGluR1 receptors, rat cerebellar membrane preparation was used to determine the binding characteristics of reference compounds and novel compounds to the rat mGluR1. [3H]R214127 (3 nM) was used as radioligand and the nonspecific binding was determined in the presence of 1 μM of R214127.
IC-50 values were determined from displacement curves by nonlinear regression analysis and were converted to Ki values using the equation method of Cheng and Prusoff (Biochem. Pharmacol., 1973, 22, 3099).

T1 sequence (P31424 21-1203): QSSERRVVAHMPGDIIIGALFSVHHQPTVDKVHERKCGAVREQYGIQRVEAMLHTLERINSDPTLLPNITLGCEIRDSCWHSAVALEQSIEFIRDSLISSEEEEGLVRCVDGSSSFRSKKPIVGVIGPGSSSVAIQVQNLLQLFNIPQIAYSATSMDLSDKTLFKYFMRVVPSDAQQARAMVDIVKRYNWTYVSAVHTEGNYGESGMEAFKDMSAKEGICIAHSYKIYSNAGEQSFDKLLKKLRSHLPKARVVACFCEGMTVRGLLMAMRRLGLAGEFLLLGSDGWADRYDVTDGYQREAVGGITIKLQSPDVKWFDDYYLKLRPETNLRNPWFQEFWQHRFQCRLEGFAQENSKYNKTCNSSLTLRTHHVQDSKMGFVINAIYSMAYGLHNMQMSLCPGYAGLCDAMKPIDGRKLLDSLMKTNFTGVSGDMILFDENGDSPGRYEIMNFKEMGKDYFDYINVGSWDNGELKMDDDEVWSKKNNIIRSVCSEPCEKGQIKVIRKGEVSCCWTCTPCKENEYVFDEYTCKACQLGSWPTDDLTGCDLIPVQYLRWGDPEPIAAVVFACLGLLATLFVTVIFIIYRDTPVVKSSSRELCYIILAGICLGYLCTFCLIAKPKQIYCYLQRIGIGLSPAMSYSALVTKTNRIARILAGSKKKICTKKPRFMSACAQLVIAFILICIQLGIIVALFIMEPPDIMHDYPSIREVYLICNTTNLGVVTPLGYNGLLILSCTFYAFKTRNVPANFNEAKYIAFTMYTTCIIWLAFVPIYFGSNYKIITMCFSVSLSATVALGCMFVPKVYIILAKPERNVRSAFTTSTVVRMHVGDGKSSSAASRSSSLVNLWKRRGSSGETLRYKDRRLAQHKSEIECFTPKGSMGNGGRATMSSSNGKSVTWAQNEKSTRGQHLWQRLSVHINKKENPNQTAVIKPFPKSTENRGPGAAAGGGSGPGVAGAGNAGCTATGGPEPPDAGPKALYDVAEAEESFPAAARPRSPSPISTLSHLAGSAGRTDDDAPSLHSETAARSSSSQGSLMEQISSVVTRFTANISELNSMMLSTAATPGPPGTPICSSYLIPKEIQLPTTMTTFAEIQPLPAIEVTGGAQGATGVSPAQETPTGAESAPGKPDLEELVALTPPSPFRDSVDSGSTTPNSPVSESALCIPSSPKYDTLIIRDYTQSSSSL
T2 sequence (P23385 19-1199): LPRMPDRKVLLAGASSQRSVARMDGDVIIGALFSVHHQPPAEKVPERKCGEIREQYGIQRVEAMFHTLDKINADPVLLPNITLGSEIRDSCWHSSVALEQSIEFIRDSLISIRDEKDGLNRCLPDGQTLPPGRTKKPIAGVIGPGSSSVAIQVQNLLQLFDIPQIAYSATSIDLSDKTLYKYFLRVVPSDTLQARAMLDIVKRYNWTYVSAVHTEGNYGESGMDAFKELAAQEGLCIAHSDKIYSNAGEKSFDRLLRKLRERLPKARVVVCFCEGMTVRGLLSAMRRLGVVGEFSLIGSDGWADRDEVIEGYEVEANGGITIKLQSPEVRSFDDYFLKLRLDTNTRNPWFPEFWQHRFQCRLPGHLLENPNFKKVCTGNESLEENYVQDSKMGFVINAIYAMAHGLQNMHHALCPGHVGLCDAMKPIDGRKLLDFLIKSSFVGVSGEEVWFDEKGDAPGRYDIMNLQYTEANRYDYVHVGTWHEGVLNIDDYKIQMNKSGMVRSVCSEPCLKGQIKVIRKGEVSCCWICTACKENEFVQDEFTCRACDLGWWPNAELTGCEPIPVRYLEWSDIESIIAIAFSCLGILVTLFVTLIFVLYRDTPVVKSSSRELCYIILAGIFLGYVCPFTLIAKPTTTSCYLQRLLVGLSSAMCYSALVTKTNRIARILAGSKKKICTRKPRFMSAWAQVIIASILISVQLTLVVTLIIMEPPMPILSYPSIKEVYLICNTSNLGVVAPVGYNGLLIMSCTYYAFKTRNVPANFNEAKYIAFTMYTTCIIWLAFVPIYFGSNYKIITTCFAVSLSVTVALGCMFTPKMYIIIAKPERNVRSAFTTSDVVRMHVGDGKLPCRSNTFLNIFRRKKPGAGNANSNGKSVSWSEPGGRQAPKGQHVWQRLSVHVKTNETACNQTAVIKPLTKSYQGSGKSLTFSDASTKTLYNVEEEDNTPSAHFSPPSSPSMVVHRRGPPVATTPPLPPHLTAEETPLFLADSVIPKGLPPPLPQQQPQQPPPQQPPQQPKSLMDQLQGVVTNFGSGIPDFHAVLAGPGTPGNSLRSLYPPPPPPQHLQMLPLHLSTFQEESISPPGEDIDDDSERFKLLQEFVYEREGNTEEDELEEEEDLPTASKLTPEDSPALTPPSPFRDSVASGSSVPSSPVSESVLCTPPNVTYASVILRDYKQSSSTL

| Ki (rat mGluR5) [nM] | Ki (rat mGluR1) [nM] | Compound |
| --- | --- | --- |
| < 200 | > 500 | N#Cc1cc(S(=O)(=O)c2cnc3ccccc3c2-c2cccc(F)c2)ccc1F [Compound 206] |
| < 200 | > 500 | Cc1ccc(S(=O)(=O)c2cnc3ccc(F)cc3c2-c2ccc(Cl)cc2)cc1Cl [Compound 139] |
| < 200 | 200 to 500 | N#Cc1cccc(S(=O)(=O)c2cnc3ccc(F)cc3c2-c2ccc(Cl)cc2)c1 [Compound 136] |
| < 200 | > 500 | COc1ccc(-c2c(S(=O)(=O)c3cccc(C#N)c3)cnc3ccc(F)cc23)cc1 [Compound 137] |
| < 200 | > 500 | N#Cc1cc(C#N)cc(S(=O)(=O)c2cnc3cc(F)ccc3c2-c2ccc(F)c(F)c2)c1 [Compound 256] |
| < 200 | > 500 | O=S(=O)(c1ccc(F)c(Cl)c1)c1cnc2c(F)c(Cl)ccc2c1-c1ccc(F)cc1 [Compound 205] |
| < 200 | > 500 | O=S(=O)(c1cc(Cl)cc(Cl)c1)c1cnc2ccc(F)cc2c1-c1cccc(Cl)c1 [Compound 160] |
| < 200 | < 200 | O=S(=O)(c1cc(F)cc(F)c1)c1cnc2c(F)cccc2c1-c1ccc(F)cc1 [Compound 119] |
| < 200 | > 500 | N#Cc1cc(F)cc(S(=O)(=O)c2cnc3c(N)cccc3c2-c2ccc(F)cc2)c1 [Compound 278] |
| < 200 | > 500 | N#Cc1cccc(S(=O)(=O)c2cnc3c(F)cccc3c2-c2ccccc2F)c1 [Compound 213] |
| > 500 | > 500 | N#Cc1ccc2c(-c3ccc(F)cc3)c(S(=O)(=O)c3ccc(F)c(F)c3)cnc2c1 [Compound 192] |
| < 200 | > 500 | O=S(=O)(c1ccc(F)c(F)c1)c1cnc2cc(F)ccc2c1-c1ccccc1F [Compound 261] |
| < 200 | > 500 | O=S(=O)(c1ccc(F)c(F)c1)c1cnc2c(F)cccc2c1-c1ccccc1F [Compound 243] |
| < 200 | 200 to 500 | O=S(=O)(c1cc(Cl)cc(Cl)c1)c1cnc2ccc(F)cc2c1-c1cccc(F)c1 [Compound 124] |
| 200 to 500 | > 500 | N#Cc1cccc(S(=O)(=O)c2cnc3cc(C#N)ccc3c2-c2ccc(F)cc2)c1 [Compound 193] |
| < 200 | > 500 | O=S(=O)(c1cccc(F)c1)c1cnc2cc(Cl)ccc2c1-c1ccc(Cl)cc1 [Compound 173] |
| < 200 | < 200 | O=S(=O)(c1ccc(F)c(F)c1)c1cnc2c(F)cccc2c1-c1cccc(F)c1 [Compound 121] |
| < 200 | > 500 | COc1cccc(-c2c(S(=O)(=O)c3ccc(F)c(Cl)c3)cnc3ccc(F)cc23)c1 [Compound 154] |

| Ki (rat mGluR5) [nM] | Ki (rat mGluR1) [nM] | Compound |
| --- | --- | --- |
| < 200 | > 500 | O=S(=O)(c1ccc(F)c(F)c1)c1cnc2ccccc2c1-c1ccc(Cl)c(Cl)c1 [Compound 260] |
| < 200 | > 500 | N#Cc1cc(S(=O)(=O)c2cnc3cc(F)ccc3c2-c2cccc(Cl)c2)ccc1F [Compound 235] |
| < 200 | > 500 | Cc1ccc(S(=O)(=O)c2cnc3c(F)cccc3c2-c2cccc(Cl)c2)cc1F [Compound 109] |
| < 200 | > 500 | O=S(=O)(c1cc(F)cc(F)c1)c1cnc2cc(Cl)ccc2c1-c1ccc(Cl)cc1 [Compound 174] |
| 200 to 500 | > 500 | COc1ccc(-c2c(S(=O)(=O)c3cc(F)cc(F)c3)cnc3ccc(F)cc23)cc1 [Compound 133] |
| < 200 | > 500 | O=S(=O)(c1cc(Cl)cc(Cl)c1)c1cnc2c(F)cccc2c1-c1ccccc1F [Compound 223] |
| 200 to 500 | > 500 | O=S(=O)(c1ccc(Cl)s1)c1cnc2cc(Cl)ccc2c1-c1ccc(F)cc1 [Compound 187] |
| < 200 | 200 to 500 | O=S(=O)(c1ccc(F)c(F)c1)c1cnc2ccc(F)cc2c1-c1cccc(F)c1 [Compound 150] |
| < 200 | 200 to 500 | N#Cc1cc(S(=O)(=O)c2cnc3cc(Cl)ccc3c2-c2ccc(F)cc2)ccc1F [Compound 276] |
| < 200 | > 500 | N#Cc1cccc(S(=O)(=O)c2cnc3c(F)cccc3c2-c2cccc(Cl)c2)c1 [Compound 246] |
| < 200 | < 200 | O=S(=O)(c1ccc(F)c(Cl)c1)c1cnc2cc(Cl)ccc2c1-c1ccccc1F [Compound 233] |
| < 200 | > 500 | COc1cccc(-c2c(S(=O)(=O)c3ccc(C)c(Cl)c3)cnc3ccc(F)cc23)c1 [Compound 141] |
| < 200 | 200 to 500 | O=S(=O)(c1cc(F)cc(F)c1)c1cnc2c(F)cccc2c1-c1cccc(Cl)c1 [Compound 115] |
| < 200 | > 500 | O=S(=O)(c1cccc(F)c1)c1cnc2cc(Cl)ccc2c1-c1cccc(F)c1 [Compound 168] |
| < 200 | 200 to 500 | O=S(=O)(c1ccc(F)c(Cl)c1)c1cnc2c(F)cccc2c1-c1ccc(F)cc1 [Compound 212] |
| < 200 | > 500 | COc1cccc(-c2c(S(=O)(=O)c3cc(F)cc(F)c3)cnc3c(F)cccc23)c1 [Compound 118] |
| < 200 | 200 to 500 | O=S(=O)(c1ccc(F)c(Cl)c1)c1cnc2cc(F)ccc2c1-c1ccc(Cl)cc1 [Compound 102] |
| < 200 | > 500 | Cc1ccc(S(=O)(=O)c2cnc3ccc(F)cc3c2-c2ccc(F)cc2)cc1C [Compound 148] |

More lines, now with the values behind:

| Compound | Ki (rat mGluR5) [nM] | Ki (rat mGluR1) [nM] |
| --- | --- | --- |
| COc1ccc(S(=O)(=O)c2cnc3cc(F)ccc3c2-c2ccc(F)cc2)cc1Cl [Compound 49] | < 200 | > 500 |
| N#Cc1cccc(S(=O)(=O)c2cnc3cc(F)ccc3c2-c2ccc(Cl)cc2)c1 [Compound 37] | < 200 | 200 to 500 |
| COc1ccc(-c2c(S(=O)(=O)c3ccc(F)cc3)cnc3ccc(F)cc23)cc1 [Compound 27] | > 500 | > 500 |
| COc1ccc(-c2c(S(=O)(=O)c3cc(F)cc(F)c3)cnc3cc(F)ccc23)cc1 [Compound 89] | < 200 | > 500 |
| O=S(=O)(c1cccc(F)c1)c1cnc2ccc(F)cc2c1-c1ccc(Cl)cc1 [Compound 32] | > 500 | > 500 |
| O=S(=O)(c1cc(F)cc(F)c1)c1cnc2cc(F)ccc2c1-c1ccc(F)cc1 [Compound 36] | < 200 | > 500 |
| COc1ccc(S(=O)(=O)c2cnc3cc(F)ccc3c2-c2cccc(F)c2)cc1 [Compound 12] | 200 to 500 | > 500 |
| Cc1ccc(S(=O)(=O)c2cnc3cc(F)ccc3c2-c2ccc(F)cc2)cc1C [Compound 46] | < 200 | > 500 |
| COc1cccc(-c2c(S(=O)(=O)c3cccc(Cl)c3)cnc3ccc(F)cc23)c1 [Compound 34] | > 500 | > 500 |
| COc1cccc(-c2c(S(=O)(=O)c3cc(Cl)cc(Cl)c3)cnc3cc(F)ccc23)c1 [Compound 82] | < 200 | > 500 |
| COc1cccc(S(=O)(=O)c2cnc3ccc(F)cc3c2-c2ccc(F)cc2)c1 [Compound 73] | < 200 | > 500 |
| Cc1ccc(S(=O)(=O)c2cnc3ccccc3c2-c2ccc(Cl)cc2)cc1 [Compound 1, 4-(4-chloro-phenyl)-3-(4-methyl-benzenesulfonyl)-quinoline] | < 200 | 200 to 500 |
| Cc1ccc(S(=O)(=O)c2cnc3cc(F)ccc3c2-c2ccc(F)cc2)cc1F [Compound 86] | < 200 | > 500 |
| COc1ccc(S(=O)(=O)c2cnc3cc(F)ccc3c2-c2ccc(F)cc2)cc1 [Compound 14] | 200 to 500 | > 500 |
| COc1cccc(-c2c(S(=O)(=O)c3ccc(F)cc3)cnc3c(F)cccc23)c1 [Compound 23] | < 200 | > 500 |
| Cc1ccc(S(=O)(=O)c2cnc3ccc(F)cc3c2-c2ccc(Cl)cc2)cc1C [Compound 33] | < 200 | > 500 |
| COc1ccc(S(=O)(=O)c2cnc3cc(F)ccc3c2-c2cccc(Cl)c2)cc1Cl [Compound 47] | < 200 | 200 to 500 |
| COc1cccc(-c2c(S(=O)(=O)c3ccc(F)c(F)c3)cnc3cc(F)ccc23)c1 [Compound 100] | < 200 | > 500 |
| O=S(=O)(c1ccc(F)cc1)c1cnc2cc(F)ccc2c1-c1cccc(F)c1 [Compound 9, 7-fluoro-3-(4-fluoro-benzenesulfonyl)-4-(3-fluoro-phenyl)-quinoline] | < 200 | 200 to 500 |
| COc1ccc(-c2c(S(=O)(=O)c3ccc(OC)cc3)cnc3c(F)cccc23)cc1 [Compound 56] | < 200 | > 500 |
| O=S(=O)(c1ccc(F)cc1)c1cnc2ccc(F)cc2c1-c1cccc(F)c1 [Compound 26] | 200 to 500 | > 500 |
| N#Cc1cccc(S(=O)(=O)c2cnc3ccc(F)cc3c2-c2ccc(F)cc2)c1 [Compound 69] | < 200 | 200 to 500 |
| COc1ccc(-c2c(S(=O)(=O)c3ccc(F)c(F)c3)cnc3cc(F)ccc23)cc1 [Compound 99] | < 200 | > 500 |
| COc1cccc(-c2c(S(=O)(=O)c3cc(F)cc(F)c3)cnc3cc(F)ccc23)c1 [Compound 90] | < 200 | > 500 |
| O=S(=O)(c1ccc(Cl)cc1)c1cnc2c(Cl)cccc2c1-c1ccc(Cl)cc1 [Compound 5] | 200 to 500 | > 500 |
